Source: PubChem BioAssay (NCI)
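The compound was tested at five concentrations on cells cultured in 96-well plates, with a 48-hour exposure period. The concentration for full growth arrest is given as TGI.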

Columns and labels:
Assay in all cases: NCI anticancer screen, dose series, 48 h
NCI-H23 lung = system: NCI-H23 lung
UACC-62 melanoma = system: UACC-62 melanoma
K-562 leukemia = system: K-562 leukemia
RXF 393 renal = system: RXF 393 renal
SNB-19 CNS = system: SNB-19 CNS
RXF-631 renal = system: RXF-631 renal
LXFL 529 NSCLC = system: LXFL 529 NSCLC
SK-MEL-28 melanoma = system: SK-MEL-28 melanoma
DMS 114 small cell lung = system: DMS 114 small cell lung
NCI-H226 lung = system: NCI-H226 lung
SF-295 CNS = system: SF-295 CNS
HCT-15 colon = system: HCT-15 colon
TK-10 renal = system: TK-10 renal
ACHN renal = system: ACHN renal
DLD-1 colon = system: DLD-1 colon
UACC-257 melanoma = system: UACC-257 melanoma
OVCAR-8 ovarian = system: OVCAR-8 ovarian
786-0 renal = system: 786-0 renal
HL-60(TB) leukemia = system: HL-60(TB) leukemia
CAKI-1 renal = system: CAKI-1 renal
A498 renal = system: A498 renal
OVCAR-3 ovarian = system: OVCAR-3 ovarian
M14 melanoma = system: M14 melanoma
RPMI-8226 leukemia = system: RPMI-8226 leukemia
HT29 colon = system: HT29 colon
EKVX NSCLC = system: EKVX NSCLC
HCT-116 colon = system: HCT-116 colon
MALME-3M melanoma = system: MALME-3M melanoma
SK-OV-3 ovarian = system: SK-OV-3 ovarian
SF-539 CNS = system: SF-539 CNS
LOX IMVI melanoma = system: LOX IMVI melanoma
NCI-H522 lung = system: NCI-H522 lung
COLO 205 colon = system: COLO 205 colon
OVCAR-4 ovarian = system: OVCAR-4 ovarian
OVCAR-5 ovarian = system: OVCAR-5 ovarian
DMS 273 small cell lung = system: DMS 273 small cell lung
SF-268 CNS = system: SF-268 CNS
NCI-H460 lung = system: NCI-H460 lung
UO-31 renal = system: UO-31 renal
A549 NSCLC = system: A549 NSCLC
SW-620 colon = system: SW-620 colon
SK-MEL-2 melanoma = system: SK-MEL-2 melanoma
HOP-92 NSCLC = system: HOP-92 NSCLC
SNB-78 CNS = system: SNB-78 CNS
KM20L2 colon = system: KM20L2 colon
SN12C renal = system: SN12C renal
XF 498 CNS = system: XF 498 CNS
M19-MEL melanoma = system: M19-MEL melanoma
SK-MEL-5 melanoma = system: SK-MEL-5 melanoma
IGROV1 ovarian = system: IGROV1 ovarian
SNB-75 CNS = system: SNB-75 CNS
HOP-62 NSCLC = system: HOP-62 NSCLC
HOP-18 NSCLC = system: HOP-18 NSCLC
HCC-2998 colon = system: HCC-2998 colon
U251 CNS = system: U251 CNS
KM12 colon = system: KM12 colon

Structure (SMILES): O=C(CC(=O)N1N=C(c2ccccc2)C(N=Nc2ccc(C(=O)O)cc2)C1=O)Nc1ccc(F)cc1 (stereo not given)
- TGI (NCI-H23 lung): 90.2 µM
- TGI (UACC-62 melanoma): 42.8 µM
- TGI (K-562 leukemia): > 100 µM
- TGI (RXF 393 renal): 25.3 µM
- TGI (SNB-19 CNS): > 100 µM
- TGI (RXF-631 renal): > 100 µM
- TGI (LXFL 529 NSCLC): > 100 µM
- TGI (SK-MEL-28 melanoma): > 100 µM
- TGI (DMS 114 small cell lung): > 100 µM
- TGI (NCI-H226 lung): 24 µM
- TGI (SF-295 CNS): > 100 µM
- TGI (HCT-15 colon): > 100 µM
- TGI (TK-10 renal): > 100 µM
- TGI (ACHN renal): > 100 µM
- TGI (DLD-1 colon): > 100 µM
- TGI (UACC-257 melanoma): > 100 µM
- TGI (OVCAR-8 ovarian): > 100 µM
- TGI (786-0 renal): 63 µM
- TGI (HL-60(TB) leukemia): 42.9 µM
- TGI (CAKI-1 renal): > 100 µM
- TGI (A498 renal): 81.7 µM
- TGI (OVCAR-3 ovarian): 56.2 µM
- TGI (M14 melanoma): > 100 µM
- TGI (RPMI-8226 leukemia): 99 µM
- TGI (HT29 colon): > 100 µM
- TGI (EKVX NSCLC): 77.1 µM
- TGI (HCT-116 colon): 28.8 µM
- TGI (MALME-3M melanoma): > 100 µM
- TGI (SK-OV-3 ovarian): 62.6 µM
- TGI (SF-539 CNS): 54.5 µM
- TGI (LOX IMVI melanoma): > 100 µM
- TGI (NCI-H522 lung): 33.3 µM
- TGI (COLO 205 colon): > 100 µM
- TGI (OVCAR-4 ovarian): > 100 µM
- TGI (OVCAR-5 ovarian): > 100 µM
- TGI (DMS 273 small cell lung): 78.7 µM
- TGI (SF-268 CNS): > 100 µM
- TGI (NCI-H460 lung): > 100 µM
- TGI (UO-31 renal): 73.4 µM
- TGI (A549 NSCLC): > 100 µM
- TGI (SW-620 colon): > 100 µM
- TGI (SK-MEL-2 melanoma): 41.8 µM
- TGI (HOP-92 NSCLC): > 100 µM
- TGI (SNB-78 CNS): > 100 µM
- TGI (KM20L2 colon): > 100 µM
- TGI (SN12C renal): > 100 µM
- TGI (XF 498 CNS): 93.4 µM
- TGI (M19-MEL melanoma): > 100 µM
- TGI (SK-MEL-5 melanoma): 46.9 µM
- TGI (IGROV1 ovarian): 80.5 µM

Structure (SMILES): CC1=NNC(=NCCN(C)C)C/C1=C/c1ccccc1Cl
- TGI (NCI-H23 lung): > 100 µM
- TGI (UACC-62 melanoma): > 100 µM
- TGI (RXF 393 renal): > 100 µM
- TGI (SNB-19 CNS): > 100 µM
- TGI (RXF-631 renal): > 100 µM
- TGI (LXFL 529 NSCLC): > 100 µM
- TGI (SNB-75 CNS): > 100 µM
- TGI (SK-MEL-28 melanoma): > 100 µM
- TGI (DMS 114 small cell lung): > 100 µM
- TGI (SF-295 CNS): > 100 µM
- TGI (HOP-62 NSCLC): > 100 µM
- TGI (HCT-15 colon): > 100 µM
- TGI (TK-10 renal): > 100 µM
- TGI (HOP-18 NSCLC): > 100 µM
- TGI (ACHN renal): > 100 µM
- TGI (DLD-1 colon): > 100 µM
- TGI (UACC-257 melanoma): 98 µM
- TGI (OVCAR-8 ovarian): > 100 µM
- TGI (786-0 renal): > 100 µM
- TGI (CAKI-1 renal): > 100 µM
- TGI (A498 renal): > 100 µM
- TGI (OVCAR-3 ovarian): > 100 µM
- TGI (M14 melanoma): > 100 µM
- TGI (HT29 colon): > 100 µM
- TGI (EKVX NSCLC): > 100 µM
- TGI (HCT-116 colon): > 100 µM
- TGI (MALME-3M melanoma): > 100 µM
- TGI (SK-OV-3 ovarian): > 100 µM
- TGI (SF-539 CNS): > 100 µM
- TGI (LOX IMVI melanoma): > 100 µM
- TGI (COLO 205 colon): > 100 µM
- TGI (OVCAR-4 ovarian): > 100 µM
- TGI (HCC-2998 colon): > 100 µM
- TGI (OVCAR-5 ovarian): > 100 µM
- TGI (DMS 273 small cell lung): > 100 µM
- TGI (SF-268 CNS): > 100 µM
- TGI (NCI-H460 lung): > 100 µM
- TGI (UO-31 renal): > 100 µM
- TGI (A549 NSCLC): > 100 µM
- TGI (SW-620 colon): > 100 µM
- TGI (SK-MEL-2 melanoma): > 100 µM
- TGI (SNB-78 CNS): > 100 µM
- TGI (KM20L2 colon): > 100 µM
- TGI (U251 CNS): > 100 µM
- TGI (SN12C renal): > 100 µM
- TGI (XF 498 CNS): > 100 µM
- TGI (M19-MEL melanoma): > 100 µM
- TGI (SK-MEL-5 melanoma): > 100 µM
- TGI (IGROV1 ovarian): > 100 µM
- TGI (KM12 colon): > 100 µM
